According to ChEMBL document CHEMBL1134530, “Synthesis and biological activity of 7-oxo substituted analogues of 5-deaza-5,6,7,8-tetrahydrofolic acid (5-DATHF) and 5,10-dideaza-5,6,7,8-tetrahydrofolic acid (DDATHF)” (J Med Chem, 2001):
Values after ≈ are worked out from the molar mass of the structure shown.

tested on: CCRF-CEM; assay: Compound was tested for cytotoxic activity in CCRF-CEM Human Leukemia cells by in vitro cytotoxicity assay; type: functional, cell-based

| Compound | IC50 |
| --- | --- |
| Nc1nc(O)c2c(n1)NC(=O)C(CNc1ccc(C(=O)NC(CCC(=O)O)C(=O)O)cc1)C2 (stereo not given) | > 20000 ng/mL |
| CN(Cc1cnc2nc(N)nc(N)c2n1)c1ccc(C(=O)N[C@@H](CCC(=O)O)C(=O)O)cc1 [METHOTREXATE] | 4 ng/mL (≈ 0.0088 µM) |
| Nc1nc(O)c2c(n1)NCC(CCc1ccc(C(=O)NC(CCC(=O)O)C(=O)O)cc1)C2 (stereo not given) | 7 ng/mL (≈ 0.0158 µM) |
| CN(CC1Cc2c(O)nc(N)nc2NC1=O)c1ccc(C(=O)NC(CCC(=O)O)C(=O)O)cc1 (stereo not given) | > 20000 ng/mL |
| Nc1nc(O)c2c(n1)NC(=O)C(CCc1ccc(C(=O)NC(CCC(=O)O)C(=O)O)cc1)C2 (stereo not given) | > 20000 ng/mL |
